Data reported in patent US6765128B1, “Method of using a pathogen-activatable map kinase to enhance disease resistance in plants” (priority 1998, dated 2004).

Columns and labels:
48-kD SIPK = assay: Phosphatase treatment of protein extracts, then in-gel kinase activity assay; type: biochemical, tobacco; details: okadaic acid 1 μM; Na3VO4 1 mM
Method: (§1) In-gel kinase activity assay. The in-gel kinase activity assay was performed as described previously (zhang & Klessig, 1997). The relative kinase activity were quantitated using a PhosphorImager (Molecular Dynamics Inc., Sunnyvale, Calif.) and normalized to the level present at the zero time point for the 48-kD kinase, which was given a value of 1.
(§2) Treatment of protein extracts with phosphatases. Protein extracts were prepared in the absence of phosphatase inhibitors from TMV-infected leaves at 8 hr after shifting plants from 32° C. to 22° C. or 48 hr after infection at 22° C. Samples containing 20 μg of protein were treated with either the serine/threonine-specific phosphatase, PP-2A1 (0.25 units in 30 μL; Upstate Biotechnology, Lake Placid, N.Y.), or the tyrosine-specific protein phosphatase, YOP (2 units in 30 μL; NEB), for 20 min at 30° C. in the presence or absence of a phosphatase inhibitor. The PP-2A1 inhibitor, okadaic acid, and YOP inhibitor, Na3VO4 were used at a concentration of 1 μM and 1 mM, respectively. After phosphatase treatment, kinase activity was detected by the in-gel kinase activity assay.

[1] = test system: WIPK-encoded 44-kD kinase; assay: as above; type: biochemical, tobacco; details: okadaic acid 1 μM; Na3VO4 1 mM
Method: as §1, §2

His-tagged WIPK protein = assay: Immunoblot analysis of Ab-p44N against a panel of His-tagged MAP kinases; type: binding, tobacco; details: 0.2 μg/mL competitor peptide
Method: Antibody production and immunoblot analysis. The peptides p44N (MADANMGAGGGQFPDFPS; SEQ ID NO: 2) and p48N ([…]; SEQ ID NO: 3), which correspond respectively to the unique N-termini of the WIPK and the SIPK proteins, were synthesized and conjugated to keyhole limpet hemacyanin (KLH) carrier. Polyclonal antisera were raised in rabbits and purified by affinity column chromatography (Zymed Laboratory, South San Francisco, Calif.).
For immunoblot analysis, 20 μg of total protein per lane were separated on 10% SDS-polyacrylamide gels, and the proteins were transferred to nitrocellulose membranes (Schleicher & Schuell, Inc., Keene, N.H.) by semi-dry electroblotting. […]
The 44-kD kinase activated by TWV in encoded by WIPK. […] The specificity of the Ab-p44N was assessed by immunoblot analysis against a panel of different MAP kinases as described above for Ab-p48N.

SIPK = details: Zhang & Klessig, 1997; cited from earlier work

Compound	Effect of phosphatase inhibitor on inactivation of SIPK by PP-2A1 and YOP (48-kD SIPK)	Effect of phosphatase inhibitor on inactivation of WIPK by PP-2A1 and YOP [1]	Effect of competitor peptide on binding of Ab-p44N to His-tagged WIPK protein (His-tagged WIPK protein)	Activation of SIPK by treatment (SIPK)
C=C1[C@@H](O)[C@@H]2O[C@]3(CC[C@H](/C=C/[C@@H](C)[C@@H]4CC(C)=C[C@@]5(O[C@H](C[C@@](C)(O)C(=O)O)CC[C@H]5O)O4)O3)CC[C@H]2O[C@@H]1[C@@H](O)C[C@H](C)[C@H]1O[C@@]2(CCCCO2)CC[C@H]1C [okadaic acid]	prevented	prevented		
[Na+].[Na+].[Na+].[O]=[V]([O-])([O-])[O-] [vanadate, Na3VO4]	prevented	prevented		
MDGSGQQTDTMMSDAGAEQPPTAP [p48N, peptide corresponding to the unique N-terminus of SIPK]			not	
MADANMGAGGGQFPDFPS [p44N]			blocked binding	
O=C(O)c1ccccc1O [SA, salicylic acid]				activated
